Values after ≈ are worked out from the molar mass of the structure shown.
Legend:
Format in all cases: cell-based
[1] = test system: S. aureus MP-549 msrA; assay: microbe, parasite or virus in culture; details: Staphylococcus aureus, MP549MSRA; S. aureus HAV#032, MP-549; MSR(A); read-out: MIC
How it was run: (§1)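 Inoculum for broth microdilution was 5×10^5 CFU/mL final, prepared from overnight 35° C blood-agar subcultures (separate handling for streptococcal and anaerobic strains); MICs read by CLSI broth microdilution or agar dilution.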

[2] = test system: S. aureus BAA 977 iErmA; assay: microbe, parasite or virus in culture; details: Staphylococcus aureus, BAA-977 / MRSA
How it was run: as §1

[3] = test system: broad panel of different clinical isolates; assay: microbe, parasite or virus in culture
How it was run: as §1

[4] = test system: S. aureus ATCC BAA-1707 (MRSA); assay: MIC (broth microdilution or agar dilution, CLSI); details: Staphylococcus aureus; S. aureus HAV#016, ATCC BAA-1707; MRSA; read-out: MIC
How it was run: as §1

[5] = test system: E. faecalis MMX 847; cErmB; assay: MIC (broth microdilution or agar dilution, CLSI); details: Enterococcus faecalis; E. faecalis HAV#036, MMX 847; mac-resistant, cErmB; read-out: MIC
How it was run: as §1

[6] = test system: S. pyogenes MMX 946; cErmB; assay: MIC (broth microdilution or agar dilution, CLSI); details: Streptococcus pyogenes; S. pyogenes HAV#035, MMX 946; cErmB, mac-resistant; read-out: MIC
How it was run: as §1

[7] = test system: S. pneumoniae ATCC 6303; assay: MIC (broth microdilution or agar dilution, CLSI); details: Streptococcus pneumoniae, ATCC6303; S. pneumoniae HAV#351, ATCC 6303; read-out: MIC
How it was run: as §1

[8] = test system: S. pneumoniae MMX 3028 cErmB; assay: MIC (broth microdilution or agar dilution, CLSI); details: Streptococcus pneumoniae, MMX3028CERMB; S. pneumoniae HAV#033; MMX 3028, cErmB; read-out: MIC
How it was run: as §1

[9] = test system: S. pneumoniae MMX 3031 cMefA; assay: MIC (broth microdilution or agar dilution, CLSI); details: Streptococcus pneumoniae, MMX3031CMEFA, S. pneumoniae HAV#034; MMX 3031, cMefA; read-out: MIC
How it was run: as §1

[10] = test system: E. faecalis ATCC 29212; assay: MIC (broth microdilution or agar dilution, CLSI); details: Enterococcus faecalis, ATCC29212, E. faecalis HAV#005, ATCC 29212; read-out: MIC
How it was run: as §1

[11] = test system: S. aureus ATCC 29213; assay: MIC (broth microdilution or agar dilution, CLSI); details: Staphylococcus aureus, ATCC29213, S. aureus HAV#001, ATCC 29213, MP-549; read-out: MIC
How it was run: as §1

[12] = test system: S. pneumoniae ATCC 49619; assay: MIC (broth microdilution or agar dilution, CLSI); details: Streptococcus pneumoniae, ATCC49619, S. pneumoniae HAV#003, ATCC 49619; read-out: MIC
How it was run: as §1

[13] = test system: S. aureus MMX 3035 cErmA; assay: MIC (broth microdilution or agar dilution, CLSI); details: Staphylococcus aureus, MMX3035CERMA; S. aureus HAV#031, MMX 3035; cErmA; read-out: MIC
How it was run: as §1

[14] = test system: S. pyogenes ATCC 19615; assay: MIC (broth microdilution or agar dilution, CLSI); details: Streptococcus pyogenes, ATCC19615, S. pyogenes HAV#004, ATCC 19615; read-out: MIC
How it was run: as §1

Work on `C[C@H]1c2cccc(O)c2C(=O)C2=C(O)[C@]3(O)C(=O)C(C(N)=O)=C(O)[C@@H](N(C)C)[C@@H]3[C@@H](O)[C@@H]21` [Doxycycline] yielded an MIC [1] of 8 µg/mL (≈ 18 µM), an MIC [2] of 0.25 µg/mL (≈ 0.563 µM) and an MIC ([3]; Acinetobacter baumannii, A. baumannii HAV#651, Clinical) of 0.125 µg/mL (≈ 0.281 µM). It also gave an MIC ([3]; Acinetobacter baumannii, A. baumannii HAV#652 Clinical) of 0.5 µg/mL (≈ 1.13 µM), an MIC ([3]; Acinetobacter baumannii, A. baumannii HAV#653, Clinical) of 0.125 µg/mL (≈ 0.281 µM) and an MIC ([3]; Acinetobacter baumannii, A. baumannii HAV#654, Clinical) of less than 0.06 µg/mL. For the same molecule, the MIC ([3]; Acinetobacter baumannii, A. baumannii HAV#655, Clinical) was 0.5 µg/mL (≈ 1.13 µM), the MIC ([3]; Acinetobacter baumannii, A. baumannii HAV#656, Clinical) was 32 µg/mL (≈ 72 µM) and the MIC ([3]; Acinetobacter baumannii, A. baumannii HAV#657, Clinical) was 0.5 µg/mL (≈ 1.13 µM). The MIC ([3]; Acinetobacter baumannii, A. baumannii HAV#658, Clinical) was 0.06 µg/mL (≈ 0.135 µM), the MIC ([3]; Acinetobacter baumannii, A. baumannii HAV#659, Clinical) was 0.5 µg/mL (≈ 1.13 µM) and the MIC ([3]; Acinetobacter baumannii, A. baumannii HAV#660, Clinical) was 1 µg/mL (≈ 2.25 µM). The MIC ([3]; Acinetobacter baumannii, A. baumannii HAV#661, Clinical) was 0.125 µg/mL (≈ 0.281 µM), the MIC ([3]; Acinetobacter baumannii, A. baumannii HAV#662, Clinical) was 0.25 µg/mL (≈ 0.563 µM) and the MIC ([3]; Acinetobacter baumannii, A. baumannii HAV#663, Clinical) was 0.125 µg/mL (≈ 0.281 µM). It also gave an MIC ([3]; Acinetobacter baumannii, A. baumannii HAV#664, Carbapenem R) of 2 µg/mL (≈ 4.5 µM), an MIC ([3]; Enterococcus faecalis, E. faecalis HAV#602, Clincal) of 0.25 µg/mL (≈ 0.563 µM) and an MIC ([3]; Enterococcus faecalis, E. faecalis HAV#607, Clinical) of 1 µg/mL (≈ 2.25 µM). It also gave an MIC ([3]; Enterococcus faecalis, E. faecalis HAV#608, Clinical) of 0.5 µg/mL (≈ 1.13 µM), an MIC ([3]; Enterococcus faecalis, E. faecalis HAV#609, Clinical) of 8 µg/mL (≈ 18 µM) and an MIC ([3]; Enterococcus faecalis, E. faecalis HAV#610, Clinical) of 0.5 µg/mL (≈ 1.13 µM). It also gave an MIC ([3]; Enterococcus faecalis, S. faecalis 5074, Line R) of 64 µg/mL (≈ 144 µM), an MIC ([3]; Enterococcus faecalis, VRE, E. faecalis HAV#251, Clinical VRE) of 0.125 µg/mL (≈ 0.281 µM) and an MIC ([3]; Enterococcus faecalis, VRE, E. faecalis HAV#606, Clinical) of 16 µg/mL (≈ 36 µM). The MIC ([3]; Enterococcus faecium, E. faecium HAV#317, Clinical) was 0.25 µg/mL (≈ 0.563 µM), the MIC ([3]; Enterococcus faecium, E. faecium HAV#324, Clinical) was 0.25 µg/mL (≈ 0.563 µM) and the MIC ([3]; Enterococcus faecium, E. faecium HAV#327, Clinical) was 0.25 µg/mL (≈ 0.563 µM). The MIC ([3]; Enterococcus faecium, E. faecium HAV#328, Clinical) was 0.25 µg/mL (≈ 0.563 µM), the MIC ([3]; Enterococcus faecium, E. faecium HAV#329, Clinical) was 0.25 µg/mL (≈ 0.563 µM) and the MIC ([3]; Enterococcus faecium, VRE, E. faecium HAV#318, VanA) was 4 µg/mL (≈ 9 µM). It also gave an MIC ([3]; Enterococcus faecium, VRE, E. faecium HAV#319, Line R & Vanco R) of 16 µg/mL (≈ 36 µM), an MIC ([3]; Enterococcus faecium, VRE, E. faecium HAV#320, Clinical) greater than 128 µg/mL and an MIC ([3]; Escherichia coli, E. coli HAV#503, Clinical) of 32 µg/mL (≈ 72 µM). The MIC ([3]; Escherichia coli, E. coli HAV#511, Clinical) was 2 µg/mL (≈ 4.5 µM), the MIC ([3]; Escherichia coli, E. coli HAV#512, Clinical) was 2 µg/mL (≈ 4.5 µM) and the MIC ([3]; Escherichia coli, E. coli HAV#513, Clinical) was 32 µg/mL (≈ 72 µM). For the same molecule, the MIC ([3]; Escherichia coli, E. coli HAV#514, Clinical) was 2 µg/mL (≈ 4.5 µM), the MIC ([3]; Escherichia coli, E. coli HAV#516, ESBL-producing) was 8 µg/mL (≈ 18 µM) and the MIC ([3]; Haemophilus influenzae, ATCC9007, H. influenzae HAV#376, ATCC-9007) was 0.25 µg/mL (≈ 0.563 µM). It also gave an MIC ([3]; Klebsiella pneumoniae, K. pneumoniae HAV#404, Clinical) of 4 µg/mL (≈ 9 µM), an MIC ([3]; Klebsiella pneumoniae, K. pneumoniae HAV#405, Clinical) of 2 µg/mL (≈ 4.5 µM) and an MIC ([3]; Klebsiella pneumoniae, K. pneumoniae HAV#406, Clinical) of 2 µg/mL (≈ 4.5 µM). The MIC ([3]; Klebsiella pneumoniae, K. pneumoniae HAV#407, Clinical) was 32 µg/mL (≈ 72 µM), the MIC ([3]; Klebsiella pneumoniae, K. pneumoniae HAV#408, Clinical) was 32 µg/mL (≈ 72 µM) and the MIC ([3]; Klebsiella pneumoniae, K. pneumoniae HAV#409, ESBL-producing) was 16 µg/mL (≈ 36 µM). The MIC ([3]; Staphylococcus aureus, MRSA, S. aureus HAV#0107, MRSA Col(Colindale, England)) was 64 µg/mL (≈ 144 µM), the MIC ([3]; Staphylococcus aureus, MRSA, S. aureus HAV#218, Line R) was 16 µg/mL (≈ 36 µM) and the MIC ([3]; Staphylococcus aureus, MRSA, S. aureus HAV#220, Line R) was 8 µg/mL (≈ 18 µM). The MIC ([3]; Staphylococcus aureus, MSSA, S. aureus HAV#219, Line R) was 1 µg/mL (≈ 2.25 µM), the MIC ([3]; Staphylococcus aureus, S. aureus HAV#051, mecA, norA, spcl, ermA, aad1, aac6′-aph2″) was 0.5 µg/mL (≈ 1.13 µM) and the MIC ([3]; Staphylococcus aureus, S. aureus HAV#052, mecA, norA, fosB, blaZ) was 0.5 µg/mL (≈ 1.13 µM). The MIC ([3]; Staphylococcus aureus, S. aureus HAV#053 mecA, norA, fosB) was 0.5 µg/mL (≈ 1.13 µM), the MIC ([3]; Staphylococcus aureus, S. aureus HAV#054, mecA, norA, spcl, aad1, fosB, ermA, aac6′-aph2″, blaZ) was 2 µg/mL (≈ 4.5 µM) and the MIC ([3]; Staphylococcus aureus, S. aureus HAV#211, Clinical) was 4 µg/mL (≈ 9 µM). The MIC ([3]; Staphylococcus aureus, S. aureus HAV#212, Clinical) was 0.25 µg/mL (≈ 0.563 µM), the MIC ([3]; Staphylococcus aureus, S. aureus HAV#213, Clinical) was 0.125 µg/mL (≈ 0.281 µM) and the MIC ([3]; Staphylococcus aureus, S. aureus HAV#214, Clinical) was 0.25 µg/mL (≈ 0.563 µM). It also gave an MIC ([3]; Staphylococcus aureus, S. aureus HAV#215, Clinical) of 0.25 µg/mL (≈ 0.563 µM), an MIC ([3]; Staphylococcus aureus, S. aureus HAV#216, Clinical, cfr) of 0.25 µg/mL (≈ 0.563 µM) and an MIC ([3]; Staphylococcus aureus, S. aureus HAV#217, cfr) of 4 µg/mL (≈ 9 µM). It also gave an MIC ([3]; Staphylococcus aureus, VISA, S. aureus HAV#203, Clinical (VISA)) of 8 µg/mL (≈ 18 µM), an MIC ([3]; Staphylococcus epidermidis, S. epidermidis HAV# 275 Clinical, cfr) of 1 µg/mL (≈ 2.25 µM) and an MIC ([3]; Staphylococcus epidermidis, S. epidermidis HAV# 276, cfr) of 2 µg/mL (≈ 4.5 µM). For the same molecule, the MIC ([3]; Staphylococcus epidermidis, S. epidermidis HAV#277, Line R) was 8 µg/mL (≈ 18 µM), the MIC ([3]; Staphylococcus epidermidis, S. epidermidis HAV#278 Line R) was 4 µg/mL (≈ 9 µM) and the MIC ([3]; Staphylococcus epidermidis, S. epidermidis HAV#279, Line R) was 32 µg/mL (≈ 72 µM). It also gave an MIC ([3]; Staphylococcus haemolyticus, S. haemolyticus 5052, Line R & Methicillin R) of 4 µg/mL (≈ 9 µM), an MIC ([3]; Streptococcus pneumoniae, ATCC700673, S. pneumoniae HAV#352, ATCC 700673, MDR) of 4 µg/mL (≈ 9 µM) and an MIC ([3]; Streptococcus pneumoniae, ATCCBAA255, S. pneumoniae HAV#354, ATCC-BAA-255) of 0.25 µg/mL (≈ 0.563 µM). It also gave an MIC ([3]; Streptococcus pneumoniae, ATCCBAA334, S. pneumoniae HAV#353, ATCC-BAA-334) of 0.25 µg/mL (≈ 0.563 µM), an MIC ([3]; Streptococcus pneumoniae, S. pneumoniae HAV#356, Clinical) of 2 µg/mL (≈ 4.5 µM) and an MIC ([3]; Streptococcus pneumoniae, S. pneumoniae HAV#358, Clinical) of 0.25 µg/mL (≈ 0.563 µM). It also gave an MIC [4] of 0.25 µg/mL (≈ 0.563 µM), an MIC [5] of 16 µg/mL (≈ 36 µM) and an MIC [6] of 0.125 µg/mL (≈ 0.281 µM). It also gave an MIC [7] of 0.125 µg/mL (≈ 0.281 µM), an MIC [8] of 1 µg/mL (≈ 2.25 µM) and an MIC [9] of 0.125 µg/mL (≈ 0.281 µM). The MIC [10] was 4 µg/mL (≈ 9 µM), the MIC [11] was 0.25 µg/mL (≈ 0.563 µM) and the MIC [12] was 0.125 µg/mL (≈ 0.281 µM). For the same molecule, the MIC [13] was 0.25 µg/mL (≈ 0.563 µM) and the MIC [14] was 0.125 µg/mL (≈ 0.281 µM).

Source: patent publication US20230203081A1, “LINCOSAMIDE ANTIBIOTICS AND USES THEREOF” (President and Fellows of Harvard College, priority 2020, published 2023)
